The structures appear in SMILES notation.

Experiment [1] concerns the target His-tagged KRAS G12D protein (Homo sapiens (Human), UniProt P01116, G12D). Briefly: KRAS G12D TR-FRET Assay. It is filed as binding. Conditions: read-out: KRAS G12D Binding IC50. The method in brief: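 His-tagged KRAS G12D (diluted to 20 nM in pH 7.4 HEPES buffer with 10 mM MgCl2 and 10 μM GDP) was preincubated with titrated compound for 30 min at room temperature. Biotinylated KRPep-2d peptide (diluted to 20 nM) was then added for 1 h, and displacement was monitored by TR-FRET.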
(In general: TR-FRET usually uses a lanthanide donor and a delayed reading to cut background.)

The target in experiment [2] is GDP-bound KRAS protein (aa 1-169), containing both G12D and C118A amino acid substitutions (Homo sapiens (Human), UniProt P01116, C118A/G12D). In words: KRAS G12D Coupled Nucleotide Exchange Assay. It is filed as biochemical. Particulars: read-out: KRAS G12D Coupled Exchange IC50.
In experiment [3] the test system is Phosphorylation of ERK1/2 in AsPC-1 cells. In words: Phospho-ERK1/2 MSD Assay. It is filed as cell-based, human. Conditions: Homo sapiens, ASPC1, 2 h, read-out: 2 h p-ERK (AsPC-1 cells), IC50. The procedure:
AsPC-1 (ATCC® CRL-1682™) cells were cultured in RPMI 1640 Medium (ThermoFisher Scientific 11875093) containing 10% fetal bovine serum (ThermoFisher Scientific 16000044) and 1× penicillin-streptomycin-glutamine (ThermoFisher Scientific 10378016). Sixteen hours prior to compound treatment, AsPC-1 cells were seeded in 96-well cell culture plates at a density of 25,000 cells/well and incubated at 37° C., 5% CO2. A compound dose-response titration was diluted in growth media, added to appropriate wells of a cell culture plate, and then incubated at 37° C., 5% CO2 for 2 hours. Following compound treatment, cells were washed with ice-cold Dulbecco's phosphate-buffered saline, no Ca^2+ or Mg^2+ (ThermoFisher Scientific 14190144), and then lysed in RIPA buffer (50 mM Tris-HCl pH 7.5, 1% Igepal, 0.5% sodium deoxycholate, 150 mM NaCl, and 0.5% sodium dodecyl sulfate) containing protease inhibitors (Roche 4693132001) and phosphatase inhibitors (Roche 4906837001). Phosphorylation of ERK1/2 in compound-treated lysates was assayed using Phospho-ERK1/2 Whole Cell Lysate kits (Meso Scale Discovery K151DWD) according to the manufacturer's protocol. Assay plates were read on a Meso Scale Discovery Sector Imager 6000, and data were analyzed using a 4-parameter logistic model to calculate IC50 values.

Sequence of His-tagged KRAS G12D protein (P01116 other isoform, or with tags, fused parts or gaps G12D): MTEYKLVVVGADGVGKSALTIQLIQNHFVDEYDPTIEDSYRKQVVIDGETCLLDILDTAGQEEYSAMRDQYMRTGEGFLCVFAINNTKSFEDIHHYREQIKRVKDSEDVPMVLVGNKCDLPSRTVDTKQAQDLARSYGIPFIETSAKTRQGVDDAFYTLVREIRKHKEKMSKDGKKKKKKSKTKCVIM
Sequence of GDP-bound KRAS protein (aa 1-169), containing both G12D and C118A amino acid substitutions (P01116 other isoform, or with tags, fused parts or gaps G12D/C118A): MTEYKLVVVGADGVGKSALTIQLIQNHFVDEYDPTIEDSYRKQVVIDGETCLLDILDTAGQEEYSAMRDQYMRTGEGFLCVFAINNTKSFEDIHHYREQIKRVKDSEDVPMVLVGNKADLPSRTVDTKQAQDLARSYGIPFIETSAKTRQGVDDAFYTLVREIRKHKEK

A word on the IC50: it is the midpoint of a concentration-inhibition curve. For `O=C1CCCOc2ccc3[nH]ncc3c2-c2ncc3c(nc(OC[C@@]45CCCN4C[C@H](F)C5)nc3c2F)N2CCC[C@H](C2)O1` [Example 30, (17R)-30-Fluoro-24-(((2R,7aS)-2-fluorotetrahydro-1H-pyrrolo[1,2-a]pyrrol-7a(5H)-yl)methoxy)-11,16-dioxa-5,6,21,23,25,29-hexaazahexacyclo[24.3.1.1˜17,21˜.0˜2,10˜.0˜3,7˜.0˜22,27˜]hentriaconta-1(30),2,4,7,9,22,24,26,28-nonaen-15-one], the half-inhibitory concentration (IC50) in experiment [1] was determined as 119 nM; in experiment [2], 141 nM; in experiment [3], 1460 nM.
The corresponding values for `O=C1COCCCc2c(Cl)cc3[nH]ncc3c2-c2ncc3c(nc(OC[C@@]45CCCN4C[C@H](F)C5)nc3c2F)N2CCC[C@H](C2)O1` [Example 37, (18R)-9-Chloro-31-fluoro-25-(((2R,7aS)-2-fluorotetrahydro-1H-pyrrolo[1,2-a]pyrrol-7a(5H)-yl)methoxy)-14,17-dioxa-5,6,22,24,26,30-hexaazahexacyclo[25.3.1.1˜18,22˜.0˜2,10˜.0˜3,7˜.0˜23,28˜]dotriaconta-1(31),2,4,7,9,23,25,27,29-nonaen-16-one bis(2,2,2-trifluoroacetate)] are 5 nM, 4 nM and 58 nM.
The corresponding values for `Cc1cc2[nH]ncc2c2c1CCCCC(=O)N[C@@H]1CCCN(C1)c1nc(OC[C@@]34CCCN3C[C@H](F)C4)nc3c(F)c-2ncc13.O=C(O)C(F)(F)F` [Example 48, (17R)-30-fluoro-24-(((2R,7aS)-2-fluorotetrahydro-1H-pyrrolo[1,2-a]pyrrol-7a(5H)-yl)methoxy)-9-methyl-5,6,16,21,23,25,29-heptaazahexacyclo[24.3.1.1˜17,21˜.0˜2,10˜.0˜3,7˜.0˜22,27˜]hentriaconta-1(30),2,4,7,9,22,24,26,28-nonaen-15-one 2,2,2-trifluoroacetate] are 14 nM, 13 nM and 931 nM.
Regarding `Cc1cc2[nH]ncc2c2c1CCCCC(=O)N(C)[C@@H]1CCCN(C1)c1nc(OC[C@@]34CCCN3C[C@H](F)C4)nc3c(F)c-2ncc13` [Example 50, (17R)-30-fluoro-24-(((2R,7aS)-2-fluorotetrahydro-1H-pyrrolo[1,2-a]pyrrol-7a(5H)-yl)methoxy)-9,16-dimethyl-5,6,16,21,23,25,29-heptaazahexacyclo[24.3.1.1~17,21~.0~2,10~.0~3,7~.0~22,27~]hentriaconta-1(30),2,4,7,9,22,24,26,28-nonaen-15-one], the IC50 stood at 7 nM in experiment [1], 4 nM in experiment [2] and 169 nM in experiment [3].
The corresponding values for `Cc1cc2[nH]ncc2c2c1CCC[C@H](F)C(=O)N(C)[C@@H]1CCCN(C1)c1nc(OC[C@@]34CCCN3C[C@H](F)C4)nc3c(F)c-2ncc13` [Example 51, (14S,17R)-14,30-difluoro-24-(((2R,7aS)-2-fluorotetrahydro-1H-pyrrolo[1,2-a]pyrrol-7a(5H)-yl)methoxy)-9,16-dimethyl-5,6,16,21,23,25,29-heptaazahexacyclo[24.3.1.1~17,21~.0~2,10~.0~3,7~.0~22,27~]hentriaconta-1(30),2,4,7,9,22,24,26,28-nonaen-15-one] are 10 nM, 5 nM and 356 nM.
For the compound `Cc1cc2[nH]ncc2c2c1CCC[C@@H](F)C(=O)N(C)[C@@H]1CCCN(C1)c1nc(OC[C@@]34CCCN3C[C@H](F)C4)nc3c(F)c-2ncc13` [Example 52, (14R,17R)-14,30-difluoro-24-(((2R,7aS)-2-fluorotetrahydro-1H-pyrrolo[1,2-a]pyrrol-7a(5H)-yl)methoxy)-9,16-dimethyl-5,6,16,21,23,25,29-heptaazahexacyclo[24.3.1.1~17,21~.0~2,10~.0~3,7~.0~22,27~]hentriaconta-1(30),2,4,7,9,22,24,26,28-nonaen-15-one], the IC50 in experiment [1] was found to be 19 nM; in experiment [2], 12 nM; in experiment [3], 403 nM.
On to `Cc1cc2[nH]ncc2c2c1CCCCC(=O)N1CC3(CCCN(C3)c3nc(OC[C@@]45CCCN4C[C@H](F)C5)nc4c(F)c-2ncc34)C1` [Example 56, 32-fluoro-24-(((2R,7aS)-2-fluorotetrahydro-1H-pyrrolo[1,2-a]pyrrol-7a(5H)-yl)methoxy)-10-methyl-3,13,14,19,23,25,27-heptaazaheptacyclo[25.3.1.1~1,3~.1~18,22~.0~9,17~.0~12,16~.0~21,26~]tritriaconta-9,11,14,16,18(32),19,21,23,25-nonaen-4-one], for which the IC50 in experiment [1] is 20 nM; in experiment [2] it was 11 nM; in experiment [3] it was 2320 nM.
The corresponding values for `O=C1CCCCc2c(Cl)cc3[nH]ncc3c2-c2ncc3c(nc(OC[C@@]45CCCN4C[C@H](F)C5)nc3c2F)N2CC[C@@H]3CCN1[C@@H]3C2` [Example 61, (28R,32S)-18-chloro-33-fluoro-4-(((2R,7aS)-2-fluorotetrahydro-1H-pyrrolo[1,2-a]pyrrol-7a(5H)-yl)methoxy)-1,3,5,9,14,15,25-heptaazaheptacyclo[23.5.2.1~6,10~.0~2,7~.0~11,19~.0~12,16~.0~28,32~]tritriaconta-2,4,6,8,10(33),11,13,16,18-nonaen-24-one] are 79 nM, 34 nM and 70 nM.
In the case of `Cc1cc2[nH]ncc2c2c1CCCCC(=O)N[C@@H]1COCCN(C1)c1nc(OC[C@@]34CCCN3C[C@H](F)C4)nc3c(F)c-2ncc13` [Example 66, (26S)-32-fluoro-4-(((2R,7aS)-2-fluorotetrahydro-1H-pyrrolo[1,2-a]pyrrol-7a(5H)-yl)methoxy)-18-methyl-28-oxa-1,3,5,9,14,15,25-heptaazahexacyclo [24.4.1.1~6,10~.0~2,7~.0~11,19~.0~12,16~]dotriaconta-2,4,6,8,10(32),11,13,16,18-nonaen-24-one], the IC50 was 34 nM in experiment [1], 26 nM in experiment [2] and 4700 nM in experiment [3].
The corresponding values for `O=C1CCCc2c(F)ccc3cccc(c23)-c2ncc3c(nc(OC[C@@]45CCCN4C[C@H](F)C5)nc3c2F)N2CCC[C@H](C2)N1` [Example 68, (15R)-22,31-Difluoro-8-(((2R,7aS)-2-fluorotetrahydro-1H-pyrrolo[1,2-a]pyrrol-7a(5H)-yl)methoxy)-3,7,9,11,16-pentaazahexacyclo[19.7.1.1˜2,6˜.1˜11,15˜.0˜5,10˜.0˜25,29˜]hentriaconta-1(28),2(31),3,5,7,9,21,23,25(29),26-decaen-17-one 2,2,2-trifluoroacetate] are 33 nM, 16 nM and 931 nM.
For the compound `O=C1CCCc2c(F)ccc3cccc(c23)-c2ncc3c(nc(OC[C@@]45CCCN4C[C@H](F)C5)nc3c2F)N2CCCC[C@H](C2)N1` [Example 69, (16R)-23,32-difluoro-8-(((2R,7aS)-2-fluorotetrahydro-1H-pyrrolo[1,2-a]pyrrol-7a(5H)-yl)methoxy)-3,7,9,11,17-pentaazahexacyclo[20.7.1.1~2,6~.1~11,16~.0~5,10~.0~26,30~]dotriaconta-1(29),2(32),3,5,7,9,22,24,26(30),27-decaen-18-one], the IC50 was 30 nM in experiment [1], 20 nM in experiment [2] and 1140 nM in experiment [3].
As to `CN1C(=O)CCCCc2c(Cl)cc3[nH]ncc3c2-c2cc3nc(OC[C@@]45CCCN4C[C@H](F)C5)nc(c3nn2)N2CCC[C@@H]1C2` [Example 73, (17R)-9-Chloro-24-(((2R,7aS)-2-fluorotetrahydro-1H-pyrrolo[1,2-a]pyrrol-7a(5H)-yl)methoxy)-16-methyl-5,6,16,21,23,25,28,29-octaazahexacyclo[24.3.1.1˜17,21˜.0˜2,10˜.0˜3,7˜.0˜22,27˜]hentriaconta-1(30),2,4,7,9,22,24,26,28-nonaen-15-one], the results for the IC50 in experiment [1], in experiment [2] and in experiment [3] were 29 nM, 20 nM and 2070 nM, respectively.
The corresponding values for `CN1C(=O)OCCCc2c(Cl)cc3[nH]ncc3c2-c2ncc3c(nc(OC[C@@]45CCCN4C[C@H](F)C5)nc3c2F)N2CCC[C@@H]1C2` [Example 74, (17R)-9-Chloro-30-fluoro-24-(((2R,7aS)-2-fluorotetrahydro-1H-pyrrolo[1,2-a]pyrrol-7a(5H)-yl)methoxy)-16-methyl-14-oxa-5,6,16,21,23,25,29-heptaazahexacyclo[24.3.1.1˜17,21˜.0˜2,10˜.0˜3,7˜.0˜22,27˜]hentriaconta-1(30),2,4,7,9,22,24,26,28-nonaen-15-one] are 3 nM, 2 nM and 16 nM.

The values are drawn from patent publication US20240294551A1 (AMGEN INC., priority 2022, published 2024).
